Data on twelve molecules can be found in ChEMBL document CHEMBL5154795, “Exploring the structure-activity relationships of diphenylurea as an antibacterial scaffold active against methicillin- and vancomycin-resistant Staphylococcus aureus” (Eur J Med Chem, 2022).

Series [1] relates to Staphylococcus aureus. The experiment in a line: Potentiation of vancomycin-induced antibacterial activity against vancomycin-resistant Staphylococcus aureus 2 assessed as vancomycin MIC at 0.5 times MIC incubated for 18 to 20 hrs by broth microdilution method. The format is functional. As to conditions: time 18-20 hrs. Background: Dilution methods test growth across graded concentrations, often in twofold steps.

The test system of series [2] is Staphylococcus aureus. The experiment in a line: Potentiation of vancomycin-induced antibacterial activity against vancomycin-resistant Staphylococcus aureus 12 assessed as vancomycin MIC at 0.5 times MIC incubated for 18 to 20 hrs by broth microdilution method. As to conditions: time 18-20 hrs. The format is functional.
In series [3] the test system is Staphylococcus aureus. Briefly: Antibacterial activity against methicillin-resistant Staphylococcus aureus NRS 123 (USA400) incubated for 18 to 20 hrs by broth microdilution method. The format is functional. The settings on record: time 18-20 hrs.
Series [4] in a line: Cytotoxicity against human HaCaT cells assessed as cell viability at 64 ug/ml incubated for 24 hrs by MTS assay relative to control. It is filed as toxicity, cell-based. The settings on record: at 64 µg/mL, read-out: Activity.
In series [5] the test system is Staphylococcus aureus. Briefly: Antibacterial activity against methicillin-resistant Staphylococcus aureus USA400 NRS 123 assessed as time of post-antibiotic effect at 5 times MIC incubated for 2 hrs followed by compound washout and measured every single 1 hr. The format is functional.
Series [6] has as its system Staphylococcus aureus. Briefly: Antibacterial activity against methicillin-sensitive Staphylococcus aureus NRS 107 incubated for 18 to 20 hrs by broth microdilution method. The format is functional. As to conditions: time 18-20 hrs.
The test system of series [7] is Staphylococcus aureus. Briefly: Antibacterial activity against methicillin-resistant Staphylococcus aureus USA300 incubated for 18 to 20 hrs by broth microdilution method. As to conditions: time 18-20 hrs. It is filed as functional.
Series [8] deals with Staphylococcus aureus. The experiment in a line: Antibacterial activity against Vancomycin-resistant Staphylococcus aureus 9 incubated for 18 to 20 hrs by broth microdilution method. The format is functional. As to conditions: time 18-20 hrs.
Series [9] relates to Staphylococcus aureus. Briefly: Antibacterial activity against methicillin-resistant Staphylococcus aureus NRS 386 (USA700) incubated for 18 to 20 hrs by broth microdilution method. It is filed as functional. The settings on record: time 18-20 hrs.
In series [10] the test system is Staphylococcus aureus. The experiment in a line: Antibacterial activity against methicillin-resistant Staphylococcus aureus NRS 385 (USA500) incubated for 18 to 20 hrs by broth microdilution method. The format is functional. As to conditions: time 18-20 hrs.
Series [11] is described as follows: Hemolytic activity in rabbit erythrocytes at 32 ug/ml incubated for 30 min by absorbance based analysis relative to control. The format is toxicity, cell-based, Oryctolagus cuniculus, Erythrocyte. As to conditions: at 32 µg/mL, read-out: Activity.
Series [12] is described as follows: Cytotoxicity against human Caco-2 cells assessed as cell viability at upto 128 ug/ml incubated for 24 hrs by MTS assay relative to control. The format is toxicity, cell-based. The settings on record: up to 128 µg/mL, read-out: Activity.
Series [13] concerns Staphylococcus aureus. Briefly: Antibacterial activity against methicillin-resistant Staphylococcus aureus NRS 119 incubated for 18 to 20 hrs by broth microdilution method. It is filed as functional. As to conditions: time 18-20 hrs.
The subject of series [14] is Staphylococcus aureus. The experiment in a line: Potentiation of vancomycin-induced antibacterial activity against vancomycin-resistant Staphylococcus aureus 9 assessed as vancomycin MIC at 0.5 times MIC incubated for 18 to 20 hrs by broth microdilution method. It is filed as functional. As to conditions: time 18-20 hrs.
Series [15] relates to Staphylococcus epidermidis. Briefly: Antibacterial activity against Staphylococcus epidermidis NRS 101 incubated for 18 to 20 hrs by broth microdilution method. It is filed as functional. The settings on record: time 18-20 hrs.
In series [16] the test system is Staphylococcus aureus. The experiment in a line: Antibacterial activity against methicillin-resistant Staphylococcus aureus USA300 infected in BALB/c mouse assessed as recovery of body weight loss administered 72 hrs post infection topically twice daily for 4 days. It is filed as functional, organism-based. As to conditions: time 4.0 day.
For series [17], the system named is Staphylococcus aureus. Briefly: Antibacterial activity against methicillin-sensitive Staphylococcus aureus ATCC 6538 incubated for 18 to 20 hrs by broth microdilution method. The format is functional. As to conditions: time 18-20 hrs.
The test system of series [18] is Staphylococcus aureus. The experiment in a line: Potentiation of vancomycin-induced antibacterial activity against vancomycin-resistant Staphylococcus aureus 3 assessed as vancomycin MIC at 0.5 times MIC incubated for 18 to 20 hrs by broth microdilution method. The settings on record: time 18-20 hrs. It is filed as functional.
In series [19] the test system is Staphylococcus aureus. The experiment in a line: Potentiation of vancomycin-induced antibacterial activity against vancomycin-resistant Staphylococcus aureus 10 assessed as vancomycin MIC at 0.5 times MIC incubated for 18 to 20 hrs by broth microdilution method. It is filed as functional. The settings on record: time 18-20 hrs.
The test system of series [20] is Staphylococcus aureus. Briefly: Antibacterial activity against Vancomycin-resistant Staphylococcus aureus 10 incubated for 18 to 20 hrs by broth microdilution method. It is filed as functional. The settings on record: time 18-20 hrs.
Series [21] has as its system Staphylococcus aureus. Briefly: Potentiation of vancomycin-induced antibacterial activity against vancomycin-resistant Staphylococcus aureus 1 assessed as vancomycin MIC at 0.5 times MIC incubated for 18 to 20 hrs by broth microdilution method. It is filed as functional. The settings on record: time 18-20 hrs.
The subject of series [22] is Staphylococcus aureus. Briefly: Potentiation of vancomycin-induced antibacterial activity against vancomycin-resistant Staphylococcus aureus 3b assessed as vancomycin MIC at 0.5 times MIC incubated for 18 to 20 hrs by broth microdilution method. The format is functional. As to conditions: time 18-20 hrs.
In series [23] the test system is Staphylococcus aureus. The experiment in a line: Potentiation of vancomycin-induced antibacterial activity against vancomycin-resistant Staphylococcus aureus 13 assessed as vancomycin MIC at 0.5 times MIC incubated for 18 to 20 hrs by broth microdilution method. As to conditions: time 18-20 hrs. The format is functional.
The test system of series [24] is Staphylococcus aureus. The experiment in a line: Antibacterial activity against Vancomycin-resistant Staphylococcus aureus 12 incubated for 18 to 20 hrs by broth microdilution method. As to conditions: time 18-20 hrs. The format is functional.
The test system of series [25] is Staphylococcus aureus. Briefly: Antibacterial activity against methicillin-resistant Staphylococcus aureus NRS 384 (USA300) incubated for 18 to 20 hrs by broth microdilution method. The format is functional. As to conditions: time 18-20 hrs.
The subject of series [26] is Staphylococcus aureus. The experiment in a line: Antibacterial activity against methicillin-resistant Staphylococcus aureus USA300 infected in BALB/c mouse assessed as reduction in bacterial count in spleen administered 72 hrs post infection topically twice daily for 4 days. As to conditions: time 4.0 day. The format is functional, organism-based.
For series [27], the system named is Staphylococcus aureus. The experiment in a line: Antibacterial activity against methicillin-resistant Staphylococcus aureus USA300 infected in BALB/c mouse assessed as reduction in bacterial count administered 72 hrs post infection topically twice daily for 4 days. The format is functional, organism-based. As to conditions: time 4.0 day.
Series [28] has as its system Staphylococcus aureus. The experiment in a line: Induction of drug resistance in methicillin-resistant Staphylococcus aureus USA400 NRS 123 assessed as fold increase in MIC measured after 15 passages by broth microdilution assay. It is filed as functional.
Series [29] can be described thus: Cytotoxicity against human HaCaT cells assessed as cell viability upto 128 ug/ml incubated for 24 hrs by MTS assay relative to control. It is filed as toxicity, cell-based. The settings on record: up to 128 µg/mL, read-out: Activity.

Each structure is given as a SMILES string. Values after ≈ are worked out from the molar mass of the structure shown. Active and inactive are the calls of the source. The calls are words filed in the database; no cut-off is given here.

`C/C(=N\NC(=N)N)c1ccc(NC(=O)Nc2ccc(-c3ccco3)cc2)cc1`: the MIC (in general, the lowest concentration found to suppress growth) came to 8 µg/mL with Staphylococcus aureus [1]; 512 µg/mL in the series on Staphylococcus aureus [2]; 2 µg/mL (≈ 5.31 µM) with Staphylococcus aureus [3]; 8 µg/mL (≈ 21.3 µM) with Staphylococcus aureus [6]; 4 µg/mL (≈ 10.6 µM) against Staphylococcus aureus [7]; 4 µg/mL (≈ 10.6 µM) in the series with Staphylococcus aureus [8]. Besides, the MIC in the series with Staphylococcus aureus [9] is 2 µg/mL (≈ 5.31 µM); with Staphylococcus aureus [10], 8 µg/mL (≈ 21.3 µM); against Staphylococcus aureus [13], 4 µg/mL (≈ 10.6 µM); in the series on Staphylococcus aureus [14], 128 µg/mL; in series [15] it was 2 µg/mL (≈ 5.31 µM); in the series on Staphylococcus aureus [17], 2 µg/mL (≈ 5.31 µM). Moreover, the MIC is 2 µg/mL with Staphylococcus aureus [18]; 8 µg/mL with Staphylococcus aureus [19]; 4 µg/mL (≈ 10.6 µM) in the series on Staphylococcus aureus [20]; 2 µg/mL with Staphylococcus aureus [21]; 8 µg/mL with Staphylococcus aureus [22]; 512 µg/mL in the series with Staphylococcus aureus [23]. Also, the minimum inhibitory concentration (MIC) against Staphylococcus aureus [24] and in the series with Staphylococcus aureus [25] was 4 µg/mL (≈ 10.6 µM) in each case. Also, in [4], the viability at 24 h, 64 ug/ml amounted to 100%. In the series on Staphylococcus aureus [5], the Time was 5 h. For the same molecule, the hemolysis at 0.5 h, 32 ug/ml in series [11] was less than 2%. In addition, the viability at 24 h in series [12] was 100%. In addition, the result in the series on Staphylococcus aureus [16] was Active.

Turning to `CC(=O)O[C@H]1C[C@@]2(C)[C@@H](C[C@@H](O)[C@H]3[C@@]4(C)CC[C@@H](O)[C@@H](C)[C@@H]4CC[C@@]32C)/C1=C(\CCC=C(C)C)C(=O)O`, the result with Staphylococcus aureus [16], in the series on Staphylococcus aureus [26] and in the series with Staphylococcus aureus [27] was Active.

On to `C/C(=N\NC(=N)N)c1ccc(NC(=O)Nc2ccc(/C=C/C3CCCCC3)cc2)cc1`, for which the MIC against Staphylococcus aureus [3] came to 4 µg/mL (≈ 9.56 µM); in the series with Staphylococcus aureus [6], 4 µg/mL (≈ 9.56 µM); against Staphylococcus aureus [8] it was 8 µg/mL (≈ 19.1 µM); in the series with Staphylococcus aureus [9] it was 8 µg/mL (≈ 19.1 µM); with Staphylococcus aureus [10], 8 µg/mL (≈ 19.1 µM); in the series with Staphylococcus aureus [13], 4 µg/mL (≈ 9.56 µM). Moreover, the MIC came to 8 µg/mL (≈ 19.1 µM) in [15]; 4 µg/mL (≈ 9.56 µM) against Staphylococcus aureus [17]; 8 µg/mL (≈ 19.1 µM) in the series on Staphylococcus aureus [20]; 8 µg/mL (≈ 19.1 µM) in the series with Staphylococcus aureus [24]; 2 µg/mL (≈ 4.78 µM) in the series on Staphylococcus aureus [25]. In addition, the viability at 24 h, 64 ug/ml in [4] was 100%. Besides, the Time in the series on Staphylococcus aureus [5] was determined as 6 h. Moreover, in [12], the viability at 24 h came to 100%.

In turn, `C/C(=N\NC(=N)N)c1ccc(NC(=O)Nc2ccc(-c3ccsc3)cc2)cc1` displayed a minimal inhibitory concentration (MIC) against Staphylococcus aureus [7] of 4 µg/mL (≈ 10.2 µM).

For `C/C(=N\NC(=N)N)c1ccc(NC(=O)Nc2ccc(C3CCC3)cc2)cc1`, in the series on Staphylococcus aureus [7], the minimal inhibitory concentration (MIC) was not below 64 µg/mL.

In the series on Staphylococcus aureus [7], `C/C(=N\NC(=N)N)c1ccc(NC(=O)Nc2ccc(-c3cc4ccccc4o3)cc2)cc1` yielded an MIC of 4 µg/mL (≈ 9.38 µM).

For `C/C(=N\NC(=N)N)c1ccc(NC(=O)Nc2ccc(-c3ccccn3)cc2)cc1`, in the series on Staphylococcus aureus [7], the MIC stood at 4 µg/mL (≈ 10.3 µM).

As for `C/C(=N\NC(=N)N)c1ccc(NC(=O)Nc2ccc(-c3cccs3)cc2)cc1`, in the series on Staphylococcus aureus [28], the fold change (FC) is 1. Also, the MIC with Staphylococcus aureus [3] is 4 µg/mL (≈ 10.2 µM); against Staphylococcus aureus [6], 2 µg/mL (≈ 5.1 µM); with Staphylococcus aureus [7], 4 µg/mL (≈ 10.2 µM); with Staphylococcus aureus [8] it was 8 µg/mL (≈ 20.4 µM); in the series on Staphylococcus aureus [9] it was 4 µg/mL (≈ 10.2 µM); against Staphylococcus aureus [10], 8 µg/mL (≈ 20.4 µM). The MIC in the series on Staphylococcus aureus [13] amounted to 16 µg/mL (≈ 40.8 µM); in series [15], 8 µg/mL (≈ 20.4 µM); against Staphylococcus aureus [17] it was 4 µg/mL (≈ 10.2 µM); in the series with Staphylococcus aureus [20], 16 µg/mL (≈ 40.8 µM); in the series on Staphylococcus aureus [24] it was 8 µg/mL (≈ 20.4 µM); against Staphylococcus aureus [25] it was 4 µg/mL (≈ 10.2 µM). Besides, the Time in the series with Staphylococcus aureus [5] was 3 h. In addition, the viability at 24 h in series [12] and in [29] was 100% in each case.

For `C/C(=N\NC(=N)N)c1ccc(NC(=O)Nc2ccc(-c3cccc(C)c3)cc2)cc1`, it took 4 µg/mL (≈ 9.99 µM) to inhibit growth in the series on Staphylococcus aureus [7] (MIC).

`C/C(=N\NC(=N)N)c1ccc(NC(=O)Nc2ccc(C=C3CCC3)cc2)cc1` showed a minimal inhibitory concentration (MIC) with Staphylococcus aureus [7] of 4 µg/mL (≈ 10.6 µM).

In the series with Staphylococcus aureus [7], `C/C(=N\NC(=N)N)c1ccc(NC(=O)Nc2ccc(Cc3ccccc3)cc2)cc1` registered an MIC of 4 µg/mL (≈ 9.99 µM).

For `C/C(=N\NC(=N)N)c1ccc(NC(=O)Nc2ccc(-c3cccnc3)cc2)cc1`, the MIC with Staphylococcus aureus [7] was determined as 4 µg/mL (≈ 10.3 µM).
